Assay results taken from patent publication US10202374B2, “6-aryl-4-phenylamino-quinazoline analogs as phosphoinositide-3-kinase inhibitors” (COUNCIL OF SCIENTIFIC & INDUSTRIAL RESEARCH, priority 2014, dated 2019).

Assays:
[1] = system: PC-3 (prostate cancer) cells; assay: MTT cytotoxicity assay, PC-3; format: cell-based; settings: Homo sapiens, 48 h treatment, read-out: Anticancer activity IC50 PC-3
Description: (§1) Compounds proposed in present invention were evaluated for their cytotoxic effect against panel of 5 cancer cell line viz. Panc-1 (pancreatic cancer), MCF-7 (breast cancer), PC-3 (prostate), HL-60 (leukemia) and A-375 (melanoma) using MTT assay. In each well of a 96-well plate, 3×10^3 cells were grown in 100 μL of medium. After 24 h, each test molecules were added to achieve a final concentration of 10 to 0.01 μmol/L, respectively. After 48 h of treatment, 20 μL of 2.5 mg/mL MTT (Organics Research, Inc.) solution in phosphate buffer saline was added to each well. […], supernatant was removed and formazan crystals were dissolved in 200 μL of DMSO. Absorbance was then measured at 570 nm using an absorbance plate reader (Bio-Rad Microplate Reader). Data are expressed as the percentage of viable cells in treated relative to non-treated conditions. Each experiment was repeated thrice and data was expressed as mean±SD of three independent experiments (Mordant, P. et al., Mol. Cancer Ther. 2010, 9, 358).

[2] = system: HL-60 (leukemia) cells; assay: MTT cytotoxicity assay, HL-60; format: cell-based; settings: Homo sapiens, 48 h treatment, read-out: Anticancer activity IC50 HL-60
Description: as §1

[3] = system: MCF-7 (breast cancer) cells; assay: MTT cytotoxicity assay, MCF-7; format: cell-based; settings: Homo sapiens, MCF7, 48 h treatment, read-out: Anticancer activity IC50 MCF-7
Description: as §1

[4] = system: Panc-1 (pancreatic cancer) cells; assay: MTT cytotoxicity assay, Panc-1; format: cell-based; settings: Homo sapiens, 48 h treatment, read-out: Anticancer activity IC50 Panc-1
Description: as §1

[5] = system: A-375 (melanoma) cells; assay: MTT cytotoxicity assay, A375; format: cell-based; settings: Homo sapiens, 48 h treatment, read-out: Anticancer activity IC50 A375
Description: as §1

[6] = molecular target: PI3K-α (Homo sapiens, UniProt P42336); assay: PI3K-α assay (ADP-Glo); format: biochemical; settings: for IC50: read-out: PI3K inhibition IC50 -α
Chain of PI3K-α (P42336 whole entry, canonical isoform): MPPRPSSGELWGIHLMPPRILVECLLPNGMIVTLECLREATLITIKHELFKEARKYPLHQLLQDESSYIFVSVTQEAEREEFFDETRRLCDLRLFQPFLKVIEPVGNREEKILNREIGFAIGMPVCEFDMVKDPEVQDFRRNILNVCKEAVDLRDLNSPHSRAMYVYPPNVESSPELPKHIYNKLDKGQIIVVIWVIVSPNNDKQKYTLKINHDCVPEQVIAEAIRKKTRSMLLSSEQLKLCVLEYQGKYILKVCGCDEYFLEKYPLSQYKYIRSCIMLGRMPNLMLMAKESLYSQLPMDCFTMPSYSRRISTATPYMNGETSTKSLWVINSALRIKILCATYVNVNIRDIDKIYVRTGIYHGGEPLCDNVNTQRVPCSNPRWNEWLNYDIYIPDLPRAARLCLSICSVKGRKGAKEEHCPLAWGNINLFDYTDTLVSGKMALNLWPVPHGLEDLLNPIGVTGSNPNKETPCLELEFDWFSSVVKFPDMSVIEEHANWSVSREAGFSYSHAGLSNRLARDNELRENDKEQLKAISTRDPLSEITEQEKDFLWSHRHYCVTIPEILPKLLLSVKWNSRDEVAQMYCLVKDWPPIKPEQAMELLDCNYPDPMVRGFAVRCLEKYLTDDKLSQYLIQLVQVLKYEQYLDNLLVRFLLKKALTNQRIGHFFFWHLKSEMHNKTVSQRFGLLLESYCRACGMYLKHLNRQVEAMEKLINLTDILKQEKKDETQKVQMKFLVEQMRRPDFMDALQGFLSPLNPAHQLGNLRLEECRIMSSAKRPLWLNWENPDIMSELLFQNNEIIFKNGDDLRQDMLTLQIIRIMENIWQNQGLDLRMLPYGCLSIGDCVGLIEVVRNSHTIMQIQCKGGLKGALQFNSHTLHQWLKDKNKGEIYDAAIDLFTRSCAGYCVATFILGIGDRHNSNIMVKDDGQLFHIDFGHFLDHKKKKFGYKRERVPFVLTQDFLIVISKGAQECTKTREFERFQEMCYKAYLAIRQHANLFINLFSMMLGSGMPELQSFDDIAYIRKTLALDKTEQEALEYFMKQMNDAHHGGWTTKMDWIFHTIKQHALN
Chain of PI3K-α (P27986 whole entry partner, canonical isoform): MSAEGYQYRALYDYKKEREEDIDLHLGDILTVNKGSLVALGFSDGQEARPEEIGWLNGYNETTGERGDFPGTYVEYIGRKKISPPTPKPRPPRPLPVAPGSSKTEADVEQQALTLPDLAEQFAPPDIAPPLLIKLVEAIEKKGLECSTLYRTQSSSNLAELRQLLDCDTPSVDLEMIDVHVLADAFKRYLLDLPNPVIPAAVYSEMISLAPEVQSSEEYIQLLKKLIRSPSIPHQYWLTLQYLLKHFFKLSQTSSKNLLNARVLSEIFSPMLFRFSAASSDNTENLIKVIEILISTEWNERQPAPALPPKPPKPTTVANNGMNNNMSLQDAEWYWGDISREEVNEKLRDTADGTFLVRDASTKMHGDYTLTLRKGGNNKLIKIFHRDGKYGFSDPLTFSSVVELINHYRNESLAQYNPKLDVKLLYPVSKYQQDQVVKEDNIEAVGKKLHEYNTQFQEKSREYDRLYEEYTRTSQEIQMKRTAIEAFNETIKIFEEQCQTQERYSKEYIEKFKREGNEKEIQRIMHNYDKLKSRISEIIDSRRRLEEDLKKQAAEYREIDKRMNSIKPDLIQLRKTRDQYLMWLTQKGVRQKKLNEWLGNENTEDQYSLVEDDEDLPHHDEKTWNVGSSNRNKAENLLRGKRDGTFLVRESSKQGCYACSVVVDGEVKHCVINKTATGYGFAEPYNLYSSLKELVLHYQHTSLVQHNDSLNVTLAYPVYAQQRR
Description: The enzyme is assayed for 80 min after which 20 ul of ADP-Glo reagent is added. After a further incubation of 40 min, 40 ul of Kinase Detection Buffer is added. The assays are incubated for 40 min and then read on PerkinElmer Envision for 1 sec/well.

[7] = molecular target: PI3K-γ (Homo sapiens, UniProt P48736); assay: PI3K-γ assay (ADP-Glo); format: biochemical; settings: for IC50: read-out: PI3K inhibition IC50 -γ; for Fold-selectivity for PI3K-α with respect to -γ: α versus γ isoform
Chain of PI3K-γ (P48736 whole entry, species assumed, canonical isoform): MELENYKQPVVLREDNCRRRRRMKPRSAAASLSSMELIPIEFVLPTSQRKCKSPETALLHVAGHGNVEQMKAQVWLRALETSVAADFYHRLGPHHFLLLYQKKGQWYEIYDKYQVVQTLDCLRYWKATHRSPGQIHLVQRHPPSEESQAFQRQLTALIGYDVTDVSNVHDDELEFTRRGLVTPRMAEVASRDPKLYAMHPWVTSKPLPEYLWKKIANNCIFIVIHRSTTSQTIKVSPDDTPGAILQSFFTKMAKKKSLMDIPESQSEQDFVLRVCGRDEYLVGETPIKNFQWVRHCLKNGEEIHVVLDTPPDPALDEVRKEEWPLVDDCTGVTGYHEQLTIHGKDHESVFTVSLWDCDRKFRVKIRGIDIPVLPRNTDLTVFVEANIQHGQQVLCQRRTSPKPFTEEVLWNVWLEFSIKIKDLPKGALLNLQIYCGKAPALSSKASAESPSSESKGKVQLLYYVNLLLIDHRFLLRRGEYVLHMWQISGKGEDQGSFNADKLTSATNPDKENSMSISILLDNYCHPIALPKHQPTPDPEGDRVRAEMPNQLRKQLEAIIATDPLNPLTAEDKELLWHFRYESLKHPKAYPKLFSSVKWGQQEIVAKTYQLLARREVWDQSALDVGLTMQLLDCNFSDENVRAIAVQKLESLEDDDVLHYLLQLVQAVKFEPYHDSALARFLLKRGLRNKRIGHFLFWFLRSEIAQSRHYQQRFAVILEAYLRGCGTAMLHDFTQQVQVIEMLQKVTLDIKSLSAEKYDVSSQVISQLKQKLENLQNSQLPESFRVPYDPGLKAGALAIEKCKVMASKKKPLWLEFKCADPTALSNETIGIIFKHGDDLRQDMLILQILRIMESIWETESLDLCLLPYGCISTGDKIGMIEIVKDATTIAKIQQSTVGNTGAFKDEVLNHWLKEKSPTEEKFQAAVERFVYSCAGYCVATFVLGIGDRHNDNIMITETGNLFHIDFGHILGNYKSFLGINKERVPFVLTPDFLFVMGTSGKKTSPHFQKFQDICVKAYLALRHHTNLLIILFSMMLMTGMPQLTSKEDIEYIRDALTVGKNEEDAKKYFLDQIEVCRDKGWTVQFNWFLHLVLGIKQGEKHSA
Description: The enzyme is assayed for 75 min after which 20 ul of ADP-Glo reagent is added. After a further incubation of 40 min, 40 ul of Kinase Detection Buffer is added. The assays are incubated for 40 min and then read on PerkinElmer Envision for 1 sec/well.

[8] = molecular target: PI3K-β (Homo sapiens, UniProt P42338); assay: PI3K-β assay (ADP-Glo); format: biochemical; settings: for IC50: read-out: PI3K inhibition IC50 -β; for Fold-selectivity for PI3K-α with respect to -β: α versus β isoform
Chain of PI3K-β (P42338 whole entry, species assumed, canonical isoform): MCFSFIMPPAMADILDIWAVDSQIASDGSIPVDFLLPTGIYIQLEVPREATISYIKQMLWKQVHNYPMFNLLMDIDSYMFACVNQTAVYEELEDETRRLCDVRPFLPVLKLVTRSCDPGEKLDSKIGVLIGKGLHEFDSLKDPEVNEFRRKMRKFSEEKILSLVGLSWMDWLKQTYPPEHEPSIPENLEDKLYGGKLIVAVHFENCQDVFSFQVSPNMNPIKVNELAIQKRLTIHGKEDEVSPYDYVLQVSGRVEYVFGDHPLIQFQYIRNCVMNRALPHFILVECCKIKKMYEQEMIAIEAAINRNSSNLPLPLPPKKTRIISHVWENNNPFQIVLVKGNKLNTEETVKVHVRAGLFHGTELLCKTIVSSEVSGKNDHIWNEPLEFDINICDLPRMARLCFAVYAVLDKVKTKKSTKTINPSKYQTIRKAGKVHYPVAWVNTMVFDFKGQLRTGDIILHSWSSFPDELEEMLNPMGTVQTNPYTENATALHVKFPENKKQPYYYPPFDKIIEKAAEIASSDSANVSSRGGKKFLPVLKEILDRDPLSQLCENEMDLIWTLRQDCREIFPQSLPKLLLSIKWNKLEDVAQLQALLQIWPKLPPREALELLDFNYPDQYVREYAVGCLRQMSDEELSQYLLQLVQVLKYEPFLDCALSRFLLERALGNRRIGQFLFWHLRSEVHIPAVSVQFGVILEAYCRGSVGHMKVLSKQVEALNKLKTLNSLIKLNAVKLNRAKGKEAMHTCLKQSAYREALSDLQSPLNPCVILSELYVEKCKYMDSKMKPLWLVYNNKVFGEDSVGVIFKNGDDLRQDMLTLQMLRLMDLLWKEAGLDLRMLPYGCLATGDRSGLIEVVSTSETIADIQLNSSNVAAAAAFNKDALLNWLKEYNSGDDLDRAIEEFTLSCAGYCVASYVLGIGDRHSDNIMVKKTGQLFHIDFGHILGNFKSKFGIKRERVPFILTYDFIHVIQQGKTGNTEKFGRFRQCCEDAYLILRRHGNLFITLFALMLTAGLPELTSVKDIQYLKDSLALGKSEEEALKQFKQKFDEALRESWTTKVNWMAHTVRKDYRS
Chain of PI3K-β (P27986 whole entry partner, species assumed, canonical isoform): as the sequence (P27986 whole entry partner, canonical isoform) above
Description: The enzyme is assayed for 60 min after which 20 ul of ADP-Glo reagent is added. After a further incubation of 40 min, 40 ul of kinase detection Buffer is added. The assays are incubated for 40 min and then read on PerkinElmer Envision for 1 sec/well.

[9] = molecular target: PI3K-δ (Homo sapiens, UniProt O00329); assay: PI3K-δ assay (ADP-Glo); format: biochemical; settings: for IC50: read-out: PI3K inhibition IC50 -δ; for Fold-selectivity for PI3K-α with respect to -δ: α versus δ isoform
Chain of PI3K-δ (O00329 whole entry, species assumed, canonical isoform): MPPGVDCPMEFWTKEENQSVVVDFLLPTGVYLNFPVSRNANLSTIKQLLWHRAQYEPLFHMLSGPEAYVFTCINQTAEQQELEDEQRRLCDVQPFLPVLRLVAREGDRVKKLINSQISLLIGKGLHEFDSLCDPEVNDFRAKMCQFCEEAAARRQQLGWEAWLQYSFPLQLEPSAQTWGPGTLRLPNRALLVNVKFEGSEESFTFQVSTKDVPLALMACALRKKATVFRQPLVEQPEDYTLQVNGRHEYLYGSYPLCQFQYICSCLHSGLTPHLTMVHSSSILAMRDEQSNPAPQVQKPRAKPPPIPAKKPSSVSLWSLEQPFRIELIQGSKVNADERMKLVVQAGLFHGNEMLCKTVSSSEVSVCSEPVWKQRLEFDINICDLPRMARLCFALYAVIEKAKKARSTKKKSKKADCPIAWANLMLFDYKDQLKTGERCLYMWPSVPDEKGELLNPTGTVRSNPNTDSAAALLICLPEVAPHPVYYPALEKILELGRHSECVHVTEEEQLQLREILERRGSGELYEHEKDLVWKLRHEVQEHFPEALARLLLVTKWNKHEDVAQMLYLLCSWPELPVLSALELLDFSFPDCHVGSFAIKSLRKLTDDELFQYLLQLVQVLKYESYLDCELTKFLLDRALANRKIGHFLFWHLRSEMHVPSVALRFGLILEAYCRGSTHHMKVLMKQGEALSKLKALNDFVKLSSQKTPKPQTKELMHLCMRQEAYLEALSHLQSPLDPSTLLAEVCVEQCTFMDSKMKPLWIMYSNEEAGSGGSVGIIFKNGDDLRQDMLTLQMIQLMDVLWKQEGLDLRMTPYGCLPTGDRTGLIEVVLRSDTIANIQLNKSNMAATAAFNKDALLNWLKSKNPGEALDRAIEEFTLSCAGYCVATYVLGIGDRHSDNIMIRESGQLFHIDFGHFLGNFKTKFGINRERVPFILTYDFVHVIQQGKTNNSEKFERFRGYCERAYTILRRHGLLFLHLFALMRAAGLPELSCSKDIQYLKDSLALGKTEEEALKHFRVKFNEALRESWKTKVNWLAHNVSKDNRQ
Chain of PI3K-δ (P27986 whole entry partner, species assumed, canonical isoform): as the sequence (P27986 whole entry partner, canonical isoform) above
Description: Compounds proposed in present invention were evaluated for their inhibitory activity on phosphoinositide-3-kinase-alpha and other isoforms (beta, gamma and delta). […] The protocols used for these bioassays are as follows:
The enzyme is assayed for 120 min after which 20 ul of ADP-Glo reagent is added. After a further incubation of 40 min, 40 ul of Kinase Detection Buffer is added. The assays are incubated for 40 min and then read on PerkinElmer Envision for 1 sec/well.

| SMILES | inhibition at 0.5 µM ([6]; 0.5 μM, preliminary screening) [%] | IC50 [7] [nM] | Fold-selectivity for PI3K-α with respect to -γ [7] [fold] | IC50 [8] [µM] | Fold-selectivity for PI3K-α with respect to -β [8] [fold] | IC50 [9] [µM] | Fold-selectivity for PI3K-α with respect to -δ [9] [fold] | IC50 [6] [nM] | % Inhibition of PI3K-α at 0.5 μM ([6]; 0.5 μM, preliminary screening) [%] | IC50 [1] [µM] | IC50 [2] [µM] | IC50 [3] [µM] | IC50 [4] [µM] | IC50 [5] [µM] |
| --- | --- | --- | --- | --- | --- | --- | --- | --- | --- | --- | --- | --- | --- | --- |
| N#CCc1ccc(Nc2ncnc3ccc(-c4ccc(F)cc4F)cc23)cc1 [Compound 7, 6-(2,4-difluorophenyl)-4-(4-cyanomethyl)phenylamino quinazoline] | 17 |  |  |  |  |  |  |  |  | 28 | 7 | 10 | 21 | 9 |
| CC(=O)c1ccc(-c2ccc3ncnc(Nc4ccc(CC#N)cc4)c3c2)cc1 [Compound 9, 6-(4-acetylphenyl)-4-(4-cyanomethyl)phenylamino quinazoline] | 44 | 150 | 0.5 | > 10 | >37 | > 10 | >37 | 270 |  | 24 | 28 | 45 | 13 | 32 |
| N#CCc1ccc(Nc2ncnc3ccc(-c4cccc(O)c4)cc23)cc1 [Compound 10, 6-(3-hydroxyphenyl)-4-(4-cyanomethyl)phenylamino quinazoline] |  | 1840 | 16 | 0.67 | 5.8 | 0.27 | 2.3 | 115 | 69.9 | 37 | 24 | 15 | 36 | 28 |
| N#CCc1ccc(Nc2ncnc3ccc(-c4cccc([N+](=O)[O-])c4)cc23)cc1 [Compound 11, 6-(3-nitrophenyl)-4-(4-cyanomethyl)phenylamino quinazoline] | 38.1 | 850 | 1.9 | > 10 | >22.2 | > 10 | >22.2 | 451 |  | 29 | 15 | 12 | 7 | 23 |
| C=Cc1ccc(-c2ccc3ncnc(Nc4ccc(CC#N)cc4)c3c2)cc1 [Compound 13, 6-(4-vinylphenyl)-4-(4-cyanomethyl)phenylamino quinazoline] | 36.4 | 520 |  | > 10 | 1 | > 10 | 1 | > 10000 |  | 34 | 16 | 11 | 32 | 27 |
| N#CCc1ccc(Nc2ncnc3ccc(-c4ccc(OCc5ccc(F)cc5)cc4)cc23)cc1 [Compound 14, 6-(4-fluorobenzyloxyphen-4-yl)-4-(4-cyanomethyl)phenylamino quinazoline] | 11 |  |  |  |  |  |  |  |  | 13 | 14 | 12 | 13 | 16 |
| CC(=O)Nc1cccc(-c2ccc3ncnc(Nc4ccc(CC#N)cc4)c3c2)c1 [Compound 15, 6-(3-acetylaminophenyl)-4-(4-cyanomethyl)phenylamino quinazoline] | 36.8 | 6950 | 14.6 | > 10 | >21 | > 10 | >21 | 475 |  | 26 | 23 | 14 | 38 | 38 |
| CCOc1ccc(-c2ccc(-c3ccc4ncnc(Nc5ccc(CC#N)cc5)c4c3)cc2)cc1 [Compound 17, 6-(4-(4-ethoxyphenyl)phenyl)-4-(4-cyanomethyl)phenylamino-quinazoline] | < 0 |  |  |  |  |  |  |  |  | 17 | 16 | 26 | 33 | 30 |
| N#CCc1ccc(Nc2ncnc3ccc(-c4ccc5c(c4)OCCO5)cc23)cc1 [Compound 20, 6-(2,3-dihydrobenzo[b][1,4]dioxin-6-yl)-4-(4-cyanomethyl)phenylamino-quinazoline] | 33 | 1370 | 4 | > 10 | >29.2 | > 10 | >29.2 | 342 |  | 34 | 21 | 34 | 32 | 27 |
| N#CCc1ccc(Nc2ncnc3ccc(-c4cc5ccccc5o4)cc23)cc1 [Compound 22, 6-(benzofuran-2-yl)-4-(4-cyanomethyl)phenylamino-quinazoline] | 29.8 |  |  |  |  |  |  |  |  | 8 | 17 | 9 | 28 | 10 |
| N#CCc1ccc(Nc2ncnc3ccc(-c4cnc5ccccc5c4)cc23)cc1 [Compound 27, 6-(quinolin-3-yl)-4-(4-cyanomethyl)phenylamino-quinazoline] | < 0 |  |  |  |  |  |  |  |  | 23 | 44 | 32 | 90 | 89 |

Further lines, with some results ahead:

| inhibition at 0.5 µM ([6]; 0.5 μM, preliminary screening) [%] | IC50 [7] [nM] | Fold-selectivity for PI3K-α with respect to -γ [7] [fold] | IC50 [8] [µM] | Fold-selectivity for PI3K-α with respect to -β [8] [fold] | IC50 [9] [µM] | Fold-selectivity for PI3K-α with respect to -δ [9] [fold] | IC50 [6] [nM] | % Inhibition of PI3K-α at 0.5 μM ([6]; 0.5 μM, preliminary screening) [%] | SMILES | IC50 [1] [µM] | IC50 [2] [µM] | IC50 [3] [µM] | IC50 [4] [µM] | IC50 [5] [µM] |
| --- | --- | --- | --- | --- | --- | --- | --- | --- | --- | --- | --- | --- | --- | --- |
| 16.4 |  |  |  |  |  |  |  |  | N#CCc1ccc(Nc2ncnc3ccc(-c4ccccc4)cc23)cc1 [Compound 6, 6-phenyl-4-(4-cyanomethyl)phenylamino quinazoline] | 27 | 32 | 23 | 40 | 24 |
| 1.3 |  |  |  |  |  |  |  |  | N#CCc1ccc(Nc2ncnc3ccc(-c4ccccc4C=O)cc23)cc1 [Compound 8, 6-(2-formylphenyl)-4-(4-cyanomethyl)phenylamino quinazoline] | 21 | 42 | 91 | 90 | 39 |
| 4.1 |  |  |  |  |  |  |  |  | Cc1ccccc1-c1ccc2ncnc(Nc3ccc(CC#N)cc3)c2c1 [Compound 12, 6-(2-methylphenyl)-4-(4-cyanomethyl)phenylamino quinazoline] | 38 | 36 | > 100 | 68 | 32 |
| < 0 |  |  |  |  |  |  |  |  | N#CCc1ccc(Nc2ncnc3ccc(-c4ccc(-c5ccccc5)cc4)cc23)cc1 [Compound 16, 6-(4-phenylphenyl)-4-(4-cyanomethyl)phenylamino-quinazoline] | 10 | 16 | 29 | 30 | 13 |
| 20.3 |  |  |  |  |  |  |  |  | N#CCc1ccc(Nc2ncnc3ccc(-c4ccc(-c5ccccc5)cc4F)cc23)cc1 [Compound 18, 6-(4-phenyl-2-fluorophenyl)-4-(4-cyanomethyl)phenylamino-quinazoline] | 14 | 16 | 13 | 33 | 32 |
| 8.2 |  |  |  |  |  |  |  |  | N#CCc1ccc(Nc2ncnc3ccc(-c4ccc5ccccc5c4)cc23)cc1 [Compound 19, 6-(naphthalen-2-yl)-4-(4-cyanomethyl)phenylamino-quinazoline] | 22 | 25 | 16 | 48 | 31 |
| 2.7 |  |  |  |  |  |  |  |  | N#CCc1ccc(Nc2ncnc3ccc(-c4cc5ccccc5s4)cc23)cc1 [Compound 23, 6-(benzo[b]thiophen-2-yl)-4-(4-cyanomethyl)phenylamino-quinazoline] | 13 | 14 | 8 | 24 | 14 |
| 1.5 |  |  |  |  |  |  |  |  | N#CCc1ccc(Nc2ncnc3ccc(-c4cccc5c4oc4ccccc45)cc23)cc1 [Compound 24, 6-(dibenzo(b,d)furan-4-yl)-4-(4-cyanomethyl)phenylamino-quinazoline] | 16 | 12 | 27 | 31 | 36 |
| < 0 |  |  |  |  |  |  |  |  | N#CCc1ccc(Nc2ncnc3ccc(-c4cccc5c4sc4ccccc45)cc23)cc1 [Compound 25, 6-(dibenzo(b,d)thiophene-4-yl)-4-(4-cyanomethyl)phenylamino-quinazoline] | 18 | 31 | 34 | 33 | 34 |
